Test results reported in PubChem BioAssay AID248 (DTP/NCI, 2004).
Toxic doses and inconclusive results are not listed.

Test system: L1210 leukemia ip in BDF1 mice, survival T/C
Assay: NCI In Vivo Anticancer Drug Screen. Data for tumor model L1210 Leukemia (intraperitoneal) in B6D2F1 (BDF1) mice
Conditions: endpoint: mean survival time, higher = longer survival
Outline: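 Each compound was tested against a transplantable tumor grown in mice. The endpoint was survival, with treated animals benchmarked against vehicle controls as a simple ratio.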

[1] = dose: 100.0 mg/kg/injection, schedule: Q01DX001 (ip), vehicle: carboxymethylcellulose (CMC)
[2] = dose: 200.0 mg/kg/injection, schedule: Q01DX001 (ip), vehicle: carboxymethylcellulose (CMC)
[3] = dose: 400.0 mg/kg/injection, schedule: Q01DX001 (ip), vehicle: carboxymethylcellulose (CMC)
[4] = dose: 100.0 mg/kg/injection, schedule: Q01DX009 (ip), vehicle: saline with Tween-80
[5] = dose: 200.0 mg/kg/injection, schedule: Q01DX009 (ip), vehicle: saline with Tween-80
[6] = dose: 400.0 mg/kg/injection, schedule: Q01DX009 (ip), vehicle: saline with Tween-80

SMILES: CCc1ccc(N)cc1
- T/C (dose: 10.0 mg/kg/injection, schedule: Q01DX001 (ip), vehicle: saline): 102 % of control
- T/C (dose: 20.0 mg/kg/injection, schedule: Q01DX001 (ip), vehicle: saline): 102 % of control
- T/C (dose: 40.0 mg/kg/injection, schedule: Q01DX001 (ip), vehicle: saline): 111 % of control

SMILES: COc1ccccc1-n1c(O)c(N=Nc2ccc(Br)cc2)c(=O)n(-c2ccccc2)c1=S
- T/C (dose: 100.0 mg/kg/injection, schedule: Q01DX001 (ip), vehicle: Klucel (hydroxypropylcellulose) (HPC)): 102 % of control
- T/C (dose: 200.0 mg/kg/injection, schedule: Q01DX001 (ip), vehicle: Klucel (hydroxypropylcellulose) (HPC)): 121 % of control
- T/C (dose: 400.0 mg/kg/injection, schedule: Q01DX001 (ip), vehicle: Klucel (hydroxypropylcellulose) (HPC)): 102 % of control

SMILES: O=c1[nH]c(CC(O)C(Cl)(Cl)Cl)nc2ccccc12 (stereo not drawn)
- T/C (dose: 50.0 mg/kg/injection, schedule: Q01DX009 (ip), vehicle: Klucel (hydroxypropylcellulose) (HPC)): 100 % of control
- T/C (dose: 100.0 mg/kg/injection, schedule: Q01DX009 (ip), vehicle: Klucel (hydroxypropylcellulose) (HPC)): 100 % of control
- T/C (dose: 200.0 mg/kg/injection, schedule: Q01DX009 (ip), vehicle: Klucel (hydroxypropylcellulose) (HPC)): 103 % of control

SMILES: CN(C)CCN(C)C(=O)C1C(c2ccccc2)C1c1ccccc1 (stereo not drawn)
- T/C (dose: 12.5 mg/kg/injection, schedule: Q04DX002 (ip), vehicle: Klucel (hydroxypropylcellulose) (HPC)): 100 % of control
- T/C (dose: 25.0 mg/kg/injection, schedule: Q04DX002 (ip), vehicle: Klucel (hydroxypropylcellulose) (HPC)): 100 % of control
- T/C (dose: 50.0 mg/kg/injection, schedule: Q04DX002 (ip), vehicle: Klucel (hydroxypropylcellulose) (HPC)): 87 % of control

SMILES: O=C(CCCl)Oc1ccc(Cl)cc1
- T/C (dose: 100.0 mg/kg/injection, schedule: Q04DX003 (ip), vehicle: saline with Tween-80): 92 % of control
- T/C (dose: 200.0 mg/kg/injection, schedule: Q04DX003 (ip), vehicle: saline with Tween-80): 93 % of control
- T/C (dose: 400.0 mg/kg/injection, schedule: Q04DX003 (ip), vehicle: saline with Tween-80): 100 % of control

SMILES: COC(=O)c1nnn(CN(CN(CN(Cn2nnc(C(=O)OC)c2C(=O)OC)[N+](=O)[O-])[N+](=O)[O-])[N+](=O)[O-])c1C(=O)OC
- T/C (dose: 75.0 mg/kg/injection, schedule: Q01DX001 (ip), vehicle: Klucel (hydroxypropylcellulose) (HPC)): 108 % of control
- T/C (dose: 150.0 mg/kg/injection, schedule: Q01DX001 (ip), vehicle: Klucel (hydroxypropylcellulose) (HPC)): 100 % of control
- T/C (dose: 300.0 mg/kg/injection, schedule: Q01DX001 (ip), vehicle: Klucel (hydroxypropylcellulose) (HPC)): 110 % of control

SMILES: O=C(CNC(=O)OCc1ccccc1)NC(Cc1ccccc1)C(=O)Oc1c(Cl)c(Cl)c(Cl)c(Cl)c1Cl (stereo not drawn)
- T/C (dose: 75.0 mg/kg/injection, schedule: Q01DX001 (ip), vehicle: carboxymethylcellulose (CMC)): 106 % of control
- T/C (dose: 150.0 mg/kg/injection, schedule: Q01DX001 (ip), vehicle: carboxymethylcellulose (CMC)): 98 % of control
- T/C (dose: 300.0 mg/kg/injection, schedule: Q01DX001 (ip), vehicle: carboxymethylcellulose (CMC)): 91 % of control

SMILES: CC(=O)NCCN
- T/C (dose: 100.0 mg/kg/injection, schedule: Q04DX003 (ip), vehicle: saline): 92 % of control
- T/C (dose: 400.0 mg/kg/injection, schedule: Q04DX003 (ip), vehicle: saline): 108 % of control

SMILES: CCOC(=O)Cc1c(C)c2c(O)cc(O)cc2oc1=O
- T/C [1]: 97 % of control
- T/C [2]: 89 % of control
- T/C [3]: 97 % of control

SMILES: COc1ccc(CN2CCCN(Cc3ccc(OC)cc3OC)C2c2ccccc2OC)c(OC)c1
- T/C (dose: 50.0 mg/kg/injection, schedule: Q01DX001 (ip), vehicle: carboxymethylcellulose (CMC)): 101 % of control
- T/C [1]: 93 % of control
- T/C [2]: 93 % of control
- T/C [3]: 101 % of control

SMILES: O[O][Ge]([c]1ccccc1)([c]1ccccc1)[c]1ccccc1
- T/C (dose: 100.0 mg/kg/injection, schedule: Q04DX003 (ip), vehicle: Klucel (hydroxypropylcellulose) (HPC)): 88 % of control
- T/C (dose: 200.0 mg/kg/injection, schedule: Q04DX003 (ip), vehicle: Klucel (hydroxypropylcellulose) (HPC)): 91 % of control
- T/C (dose: 400.0 mg/kg/injection, schedule: Q04DX003 (ip), vehicle: Klucel (hydroxypropylcellulose) (HPC)): 88 % of control

SMILES: Cc1ccc(SC(=O)Cc2ccc([N+](=O)[O-])cc2)cc1
- T/C [4]: 97 % of control
- T/C [5]: 86 % of control
- T/C [6]: 93 % of control

SMILES: O=C(COc1c(Cl)cc(Cl)cc1Cl)NCc1ccc(Cl)cc1
- T/C [4]: 100 % of control
- T/C [5]: 109 % of control
- T/C [6]: 101 % of control

SMILES: O=c1cc(C2CCCCC2)c2ccccc2[nH]1
- T/C (dose: 100.0 mg/kg/injection, schedule: Q04DX003 (ip), vehicle: gum acacia): 91 % of control
- T/C (dose: 200.0 mg/kg/injection, schedule: Q04DX003 (ip), vehicle: gum acacia): 97 % of control
- T/C (dose: 400.0 mg/kg/injection, schedule: Q04DX003 (ip), vehicle: gum acacia): 91 % of control

SMILES: S=C=NCc1cccc(CN=C=S)c1
- T/C (dose: 6.25 mg/kg/injection, schedule: Q01DX009 (ip), vehicle: saline with Tween-80): 103 % of control
